The source of these data is ChEMBL document CHEMBL5143725, “Optimization of TEAD P-Site Binding Fragment Hit into In Vivo Active Lead MSC-4106” (J Med Chem, 2022).

Data set [1] in a line: Inhibition of YAP/TAZ-TEAD interaction in human SK-HEP1 cells incubated for 24 hrs by luciferase reporter gene assay. In kind it is cell-based. For orientation: In a reporter assay the amount or activity of a reporter protein is the signal.
The target in data set [2] is T1, Transcriptional enhancer factor TEF-1 (Homo sapiens, UniProt P28347). The data set can be described thus: Binding affinity to human TEAD1 (209 to 426 residues) expressed in Escherichia coli BL21 Star (DE3) by surface plasmon resonance assay. (In general: In SPR one partner is held on a chip, and binding of the other changes the refractive index at the surface.)
T1 sequence (P28347 whole entry, the tested form may be a part): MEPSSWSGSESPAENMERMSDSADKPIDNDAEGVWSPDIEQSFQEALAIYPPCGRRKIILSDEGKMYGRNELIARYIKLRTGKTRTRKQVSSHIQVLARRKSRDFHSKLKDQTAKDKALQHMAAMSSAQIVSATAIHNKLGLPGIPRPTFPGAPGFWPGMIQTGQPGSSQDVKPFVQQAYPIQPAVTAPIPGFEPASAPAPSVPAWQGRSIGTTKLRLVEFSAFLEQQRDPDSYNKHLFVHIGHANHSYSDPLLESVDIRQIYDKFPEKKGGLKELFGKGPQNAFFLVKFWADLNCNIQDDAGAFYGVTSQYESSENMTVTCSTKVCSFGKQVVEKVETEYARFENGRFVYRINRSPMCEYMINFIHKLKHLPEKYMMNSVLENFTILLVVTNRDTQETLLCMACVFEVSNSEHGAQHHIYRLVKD
For data set [3], the target named is T2, Transcriptional enhancer factor TEF-4 (Homo sapiens, UniProt Q15562). The data set can be described thus: Binding affinity to human TEAD2 (217 to 447 residues) expressed in Escherichia coli BL21 Star (DE3) by surface plasmon resonance assay.
T2 sequence (Q15562 whole entry, the tested form may be a part): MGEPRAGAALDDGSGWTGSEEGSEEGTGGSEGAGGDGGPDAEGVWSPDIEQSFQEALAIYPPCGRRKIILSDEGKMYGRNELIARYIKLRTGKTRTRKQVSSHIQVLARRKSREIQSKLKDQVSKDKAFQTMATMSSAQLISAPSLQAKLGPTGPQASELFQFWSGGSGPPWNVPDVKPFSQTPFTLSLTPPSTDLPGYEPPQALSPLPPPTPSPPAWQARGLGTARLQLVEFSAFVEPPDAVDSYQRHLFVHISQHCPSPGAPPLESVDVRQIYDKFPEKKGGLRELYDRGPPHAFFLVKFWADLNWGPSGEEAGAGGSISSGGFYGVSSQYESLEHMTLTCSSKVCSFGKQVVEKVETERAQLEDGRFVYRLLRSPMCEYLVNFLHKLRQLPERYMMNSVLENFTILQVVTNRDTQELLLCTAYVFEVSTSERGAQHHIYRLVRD
The target in data set [4] is T3, Transcriptional enhancer factor TEF-5 (Homo sapiens, UniProt Q99594). The data set can be described thus: Binding affinity to human TEAD3 (216 to 435 residues) expressed in Escherichia coli BL21 Star (DE3) by surface plasmon resonance assay.
T3 sequence (Q99594 whole entry, the tested form may be a part): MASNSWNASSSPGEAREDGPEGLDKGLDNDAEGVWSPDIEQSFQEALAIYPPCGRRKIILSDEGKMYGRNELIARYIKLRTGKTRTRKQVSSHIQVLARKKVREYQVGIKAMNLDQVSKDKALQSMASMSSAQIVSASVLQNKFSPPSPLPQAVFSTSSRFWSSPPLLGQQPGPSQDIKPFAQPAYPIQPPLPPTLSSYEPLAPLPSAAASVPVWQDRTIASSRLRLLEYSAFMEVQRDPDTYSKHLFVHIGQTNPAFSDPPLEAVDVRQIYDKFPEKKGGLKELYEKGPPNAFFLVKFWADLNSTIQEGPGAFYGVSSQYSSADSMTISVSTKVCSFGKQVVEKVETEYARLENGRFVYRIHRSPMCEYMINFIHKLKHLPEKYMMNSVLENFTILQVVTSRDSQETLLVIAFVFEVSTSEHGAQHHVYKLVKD
For data set [5], the target named is T4, Transcriptional enhancer factor TEF-3 (Homo sapiens, UniProt Q15561). The data set can be described thus: Binding affinity to human TEAD4 (217 to 434 residues) expressed in Escherichia coli BL21 Star (DE3) by surface plasmon resonance assay.
T4 sequence (Q15561 whole entry, the tested form may be a part): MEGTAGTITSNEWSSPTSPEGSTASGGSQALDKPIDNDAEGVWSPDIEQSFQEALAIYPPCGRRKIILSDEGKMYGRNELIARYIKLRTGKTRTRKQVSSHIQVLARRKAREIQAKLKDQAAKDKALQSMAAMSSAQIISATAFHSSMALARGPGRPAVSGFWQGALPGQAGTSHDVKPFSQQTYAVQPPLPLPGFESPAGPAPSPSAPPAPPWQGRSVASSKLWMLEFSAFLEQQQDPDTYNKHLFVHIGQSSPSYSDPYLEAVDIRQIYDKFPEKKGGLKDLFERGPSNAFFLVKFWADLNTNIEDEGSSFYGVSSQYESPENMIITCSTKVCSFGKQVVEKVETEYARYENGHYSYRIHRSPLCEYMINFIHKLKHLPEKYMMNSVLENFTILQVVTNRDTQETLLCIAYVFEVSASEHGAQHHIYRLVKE
The target in data set [6] is T1, Transcriptional enhancer factor TEF-1. The data set can be described thus: Binding affinity to human TEAD1 (209 to 426 residues) expressed in Escherichia coli BL21 Star (DE3) assessed as change in melting temperature incubated for 2 hrs by measuring tryptophane fluorescence by Nano Differential scanning fluorometry. (DSF heats the sample and reads unfolding from a dye or from intrinsic fluorescence.)

The target of data set [7] is T2, Transcriptional enhancer factor TEF-4. The data set can be described thus: Binding affinity to human TEAD2 (217 to 447 residues) expressed in Escherichia coli BL21 Star (DE3) assessed as change in melting temperature incubated for 2 hrs by measuring tryptophane fluorescence by Nano Differential scanning fluorometry.
The target in data set [8] is T3, Transcriptional enhancer factor TEF-5. The data set can be described thus: Binding affinity to human TEAD3 (216 to 435 residues) expressed in Escherichia coli BL21 Star (DE3) assessed as change in melting temperature incubated for 2 hrs by measuring tryptophane fluorescence by Nano Differential scanning fluorometry.
Data set [9] addresses T4, Transcriptional enhancer factor TEF-3. The data set can be described thus: Binding affinity to human TEAD4 (217 to 434 residues) expressed in Escherichia coli BL21 Star (DE3) assessed as change in melting temperature incubated for 2 hr by measuring tryptophane fluorescence by Nano Differential scanning fluorometry.
Data set [10] addresses T1, Transcriptional enhancer factor TEF-1. The data set can be described thus: Inhibition of pSF-CMV-P-FLAG tagged human TEAD1 palmitoylation transfected in HEK293 cells at 10 uM incubated for 6 hrs by Western blot analysis relative to control. In kind it is cell-based.
Data set [11] addresses T2, Transcriptional enhancer factor TEF-4. The data set can be described thus: Inhibition of pSF-CMV-P-FLAG tagged human TEAD2 palmitoylation transfected in HEK293 cells at 10 uM incubated for 6 hrs by Western blot analysis relative to control. In kind it is cell-based.
In data set [12] the target is T3, Transcriptional enhancer factor TEF-5. The data set can be described thus: Inhibition of pSF-CMV-P-FLAG tagged human TEAD3 palmitoylation transfected in HEK293 cells at 10 uM incubated for 6 hrs by Western blot analysis relative to control. In kind it is cell-based.
Data set [13] concerns the target T4, Transcriptional enhancer factor TEF-3. The data set can be described thus: Inhibition of pSF-CMV-P-FLAG tagged human TEAD4 palmitoylation transfected in HEK293 cells at 10 uM incubated for 6 hrs by Western blot analysis relative to control. In kind it is cell-based.
Data set [14] addresses T3, Transcriptional enhancer factor TEF-5. The data set can be described thus: Inhibition of pSF-CMV-P-FLAG tagged human TEAD3 palmitoylation transfected in HEK293 cells at 1 uM incubated for 6 hrs by Western blot analysis relative to control. In kind it is cell-based.
The subject of data set [15] is SW-620. The data set can be described thus: Cytotoxicity against YAP/TAZ knockout human SW620 cells assessed as cell viability measured for 4 days by celltiter-glo assay. As to conditions: SW-620, 96 h.
Data set [16] in a line: Inhibition of cysteine-rich angiogenic inducer 61 expression in human SK-HEP1 cells incubated for 96 hrs by ELISA method. As to conditions: SK-HEP1, 96 h.
Data set [17] can be described thus: Inhibition of connective tissue growth factor expression in human SK-HEP1 cells incubated for 96 hrs by ELISA method. The conditions noted are these: SK-HEP1, 96 h.
The nature of data set [18]: Inhibition of cysteine-rich angiogenic inducer 61 expression in human NCI-H226 cells incubated for 96 hrs by ELISA method. As to conditions: NCI-H226, 96 h.
Data set [19] is described as follows: Inhibition of connective tissue growth factor expression in human NCI-H226 cells incubated for 96 hrs by ELISA method. As to conditions: NCI-H226, 96 h.
In data set [20] the test system is NCI-H226. The data set can be described thus: In vivo antitumor activity against human NCI-H226 cells xenografted in mouse model assessed as tumor growth inhibition at 100 mg/kg, po qd measured after 32 days. In kind it is functional, organism-based. The conditions noted are these: time 32.0 day.
Data set [21] concerns the target T2, Transcriptional enhancer factor TEF-4. The data set can be described thus: Binding affinity to human TEAD2 (217 to 447 residues) expressed in Escherichia coli BL21 Star (DE3) assessed as change in melting temperature incubated for 2 hrs measuring scattering fluorescence by Nano Differential scanning fluorometry.
Data set [22] deals with T1, Transcriptional enhancer factor TEF-1. The conditions noted are these: HEK293, dose 100.0 nM, time 6.0 hrs.
Data set [23] has as its system NCI-H226. The data set can be described thus: Cytotoxicity against human NCI-H226 cells assessed as cell viability at 10 uM measured for 7 days by celltiter-glo assay. In kind it is functional, cell-based. As to conditions: NCI-H226, 168 h.
Data set [24] addresses T1, Transcriptional enhancer factor TEF-1. The data set can be described thus: Binding affinity to human TEAD1 (209 to 426 residues) expressed in Escherichia coli BL21 Star (DE3) assessed as change in melting temperature incubated for 2 hrs by measuring scattering fluorescence by Nano Differential scanning fluorometry.
In data set [25] the target is T3, Transcriptional enhancer factor TEF-5. The data set can be described thus: Binding affinity to human TEAD3 (216 to 435 residues) expressed in Escherichia coli BL21 Star (DE3) assessed as change in melting temperature incubated for 2 hrs by measuring scattering fluorescence by Nano Differential scanning fluorometry.
Data set [26] in a line: Microsomal stability in human hepatocyte measured per 10^6 cells. In kind it is ADME, cell-based. The conditions noted are these: hepatocytes.
A short description of data set [27]: Microsomal stability in mouse hepatocyte measured per 10^6 cells. In kind it is ADME, cell-based. As to conditions: hepatocytes.

Each structure is given as a SMILES string. Calls of active or inactive are those of the source. The rule behind the calls is not given here.

Turning to `Cn1cc2c3cc(C(=O)O)ccc3n(-c3ccc(C(F)(F)F)cc3)c2n1`, the IC50 in data set [1] is 4 nM; in data set [15], greater than 30000 nM; in [16], 24 nM; in data set [17], 10 nM; in [18], 13 nM; in data set [19] it was 11 nM. Moreover, the Kd in data set [2] worked out at 120 nM; in data set [3], 4600 nM; in data set [4], 1400 nM; in [5] it was 5400 nM. Moreover, the ΔTm in data set [6] is 13.4 °C; in data set [7] it was -3.7 °C; in data set [8] it was 5.1 °C; in data set [9], 0.4 °C; in data set [21], 3.7 °C. Also, the inhibition was 90% in [10]; 24% in data set [11]; 81% in data set [12]; 12% in data set [13]; 3.8% in data set [14]; 55.7% in data set [22]. Besides, the outcome in data set [20] was Active.

As to `Cc1nccnc1-c1nn2c(=O)cc(-c3ccc(C4CCCCC4)cc3)[nH]c2c1C(=O)N1CC(CF)C1`, the half-maximal inhibitory concentration (IC50) in [1] stood at 36 nM; in data set [23], 82 nM. In addition, the ΔTm in data set [9] was 14.9 °C; in data set [24], 7.6 °C; in data set [21], 9.5 °C; in data set [25], 6.9 °C. The inhibition was determined as 84% in data set [10], 86% in [11], 91% in data set [12] and 88% in data set [13].

With `C#CCn1cc2c3cc(C(=O)O)ccc3n(-c3ccc(C(F)(F)F)cc3)c2n1`, it took 4 nM to reach half-maximal inhibition in data set [1] (IC50). Moreover, the Stability in data set [26] and in data set [27] was greater than 20 µL/min throughout.

In general, IC50 refers to the concentration that inhibits the measured activity by half. Broadly, the Kd is the free concentration of one partner at which half of the binding sites on the other are occupied at equilibrium, for simple one-to-one binding. A word on the ΔTm: it is the shift of the melting midpoint relative to a reference. Usually inhibition stands for the share of the control response that was lost under treatment.
